# Test results taken from patent EP3436024B1, “3-BETA-METHOXY-PREG FOR USE IN THE TREATMENT OF TREATMENT RESISTANT DEPRESSION” (Mapreg, priority 2016, dated 2017).
# Legend:
# [1] = tested on: 80 different CNS neurotransmitters receptors; test: Screen for in vitro affinity to 80 CNS neurotransmitter receptors; type: binding; settings: MAP4343 10 µM; inhibition higher than 50% considered significant
# Description: (§1) MAP4343 has been screened for in vitro affinity to 80 different CNS neurotransmitters receptors using various validated binding assays.
# (§2) Table 4. In vitro affinity of MAP4343 (10 µM) for CNS neurotransmitter receptors associated with side effects and/or abuse liability. Data are the average of two individual assays for each receptor and are expressed as % inhibition of the control specific binding of the reference compound. Results showing an inhibition higher than 50% are considered to represent significant effects of the test compound.
# [2] = molecular target: Oppioid µ (Homo sapiens, UniProt P35372); test: CNS receptor binding assay, opioid µ; settings: MAP4343 10 µM; [^3H] DAMGO; Human recombinant (HEK-293 cells); read-out: % Inhibition of control specific binding
# Sequence of Oppioid µ (P35372 whole entry): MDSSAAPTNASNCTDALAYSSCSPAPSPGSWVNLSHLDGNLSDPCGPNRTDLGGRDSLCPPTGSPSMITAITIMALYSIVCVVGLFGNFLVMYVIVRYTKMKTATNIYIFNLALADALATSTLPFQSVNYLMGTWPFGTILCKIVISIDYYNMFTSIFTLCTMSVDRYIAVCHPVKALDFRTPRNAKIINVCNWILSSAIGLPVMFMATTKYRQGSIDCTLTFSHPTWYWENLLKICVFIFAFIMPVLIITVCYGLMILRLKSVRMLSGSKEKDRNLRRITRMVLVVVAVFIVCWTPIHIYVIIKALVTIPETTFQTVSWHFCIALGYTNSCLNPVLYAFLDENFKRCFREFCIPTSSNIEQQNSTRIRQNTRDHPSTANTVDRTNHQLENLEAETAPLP
# Description: as §1, §2
# [3] = tested on: Wistar Kyoto (WKY) rats; test: Elevated-plus maze (EPM), WKY rats; type: in vivo, rat; settings: acute, MAP4343 10 mg/kg s.c., fluoxetine 10 mg/kg, ketamine 30 mg/kg i.p., Fig. 5D
# Description: (§3) After a 6-day period of acclimatization, all experimental groups received daily successive subcutaneous (250 µl per rat) and intraperitoneal (1 ml/kg) injections. WI rats received injection of vehicle (sesame oil + saline) while WKY rats were randomly assigned to […], as follow: KWY rats receiving only vehicle (sesame oil + saline) and WKY rats treated with MAP4343 (10 mg/kg, s.c.; rats received in parallel i.p. injections of saline), fluoxetine (10 mg/kg i.p., rats received in parallel s.c. injections of sesame oil) or ketamine (30 mg/kg, i.p.; rats received in parallel s.c. injections of sesame oil) (see Figure 3).
# (§4) After, a 6-day period of acclimatization, the acute phase of treatment started for 4 days during behavioral tests were performed (Figure 3). All animals were injected 1h30 before the starting of behavioral test.
# We used the elevated-plus maze (EPM) as an assay of anxiety-related behavior in rodents (Walf and Frye, 2007). Rats were initially placed in the center of the plus-maze, consisting of two open arms (50 x 10 cm) and two closed arms (50 x 10 cm enclosed by 40 cm walls), in a 50 lux illuminated room and videotaped during 5 min using a computerized system (VideoTrack V2.5, ViewPoint, Lyon, France). The time spent in the open versus closed arms was blindly measured by two independent experimenters from the recorded video, and the open arm-index was calculated as follow: time in the open arms (sec) / [time in open arms (sec) + time in closed arms (sec)].
# [4] = molecular target: T1, Muscarinic (Cholinergic) M3 (Homo sapiens, UniProt P20309); test: CNS receptor binding assay, M3; settings: MAP4343 10 µM; [^3H] 4-DAMP; Human recombinant (CHO cells); read-out: % Inhibition of control specific binding
# T1 construct: expressed in transfected cells; host or cells: CHO cells
# Description: as §1, §2
# [5] = molecular target: Serotoninergic 5-HT3 (Homo sapiens, UniProt P46098); test: CNS receptor binding assay, 5-HT3; settings: MAP4343 10 µM; [^3H] BRL 43694; Human recombinant (CHO cells); read-out: % Inhibition of control specific binding
# Sequence of Serotoninergic 5-HT3 (P46098 24-478): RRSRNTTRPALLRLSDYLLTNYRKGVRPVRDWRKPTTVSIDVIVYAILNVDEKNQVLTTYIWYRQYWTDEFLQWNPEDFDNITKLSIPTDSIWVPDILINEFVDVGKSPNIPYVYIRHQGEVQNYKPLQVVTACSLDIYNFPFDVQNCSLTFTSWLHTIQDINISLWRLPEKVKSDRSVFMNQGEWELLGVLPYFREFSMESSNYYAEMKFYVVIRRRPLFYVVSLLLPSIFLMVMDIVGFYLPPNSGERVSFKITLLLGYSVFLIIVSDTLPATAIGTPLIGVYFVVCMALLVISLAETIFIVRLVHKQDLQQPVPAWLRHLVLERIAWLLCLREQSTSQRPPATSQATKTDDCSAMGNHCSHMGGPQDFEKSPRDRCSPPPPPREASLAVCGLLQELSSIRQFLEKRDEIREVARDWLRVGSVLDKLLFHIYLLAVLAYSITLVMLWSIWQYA
# Description: as §1, §2
# [6] = molecular target: Dopaminergic D3 (Homo sapiens, UniProt P35462); test: CNS receptor binding assay, D3; settings: MAP4343 10 µM; [^3H] spiperone; Human recombinant (CHO cells); read-out: % Inhibition of control specific binding
# Sequence of Dopaminergic D3 (P35462 whole entry): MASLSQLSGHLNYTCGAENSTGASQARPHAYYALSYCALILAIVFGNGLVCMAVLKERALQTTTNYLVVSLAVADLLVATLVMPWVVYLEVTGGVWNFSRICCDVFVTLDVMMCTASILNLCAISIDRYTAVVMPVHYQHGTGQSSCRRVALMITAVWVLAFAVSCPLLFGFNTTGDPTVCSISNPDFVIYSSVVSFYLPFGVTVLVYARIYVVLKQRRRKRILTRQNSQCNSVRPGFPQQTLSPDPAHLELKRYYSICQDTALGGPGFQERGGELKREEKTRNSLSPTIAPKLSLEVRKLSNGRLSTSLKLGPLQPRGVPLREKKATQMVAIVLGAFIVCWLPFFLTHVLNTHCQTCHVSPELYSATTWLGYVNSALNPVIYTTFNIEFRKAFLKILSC
# Description: as §1, §2
# [7] = molecular target: Serotoninergic 5-HT5A (Homo sapiens, UniProt P47898); test: CNS receptor binding assay, 5-HT5A; settings: MAP4343 10 µM; [^3H] LSD; Human recombinant (CHO cells); read-out: % Inhibition of control specific binding
# Sequence of Serotoninergic 5-HT5A (P47898 whole entry): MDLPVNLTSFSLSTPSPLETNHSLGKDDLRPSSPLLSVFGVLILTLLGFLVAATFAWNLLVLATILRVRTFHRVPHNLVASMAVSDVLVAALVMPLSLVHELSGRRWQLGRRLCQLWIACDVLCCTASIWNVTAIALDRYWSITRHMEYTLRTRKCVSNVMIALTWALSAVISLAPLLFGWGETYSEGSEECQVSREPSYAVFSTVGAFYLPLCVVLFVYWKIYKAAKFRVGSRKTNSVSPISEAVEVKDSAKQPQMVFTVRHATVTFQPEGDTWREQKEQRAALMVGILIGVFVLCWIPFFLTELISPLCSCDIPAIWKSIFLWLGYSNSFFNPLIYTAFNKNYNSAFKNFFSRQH
# Description: as §1, §2
# [8] = molecular target: Dopaminergic D2S (Homo sapiens, UniProt P14416); test: CNS receptor binding assay, D2S; settings: MAP4343 10 µM; [^3H] spiperone; Human recombinant (HEK-293 cells); read-out: % Inhibition of control specific binding
# Description: as §1, §2
# [9] = molecular target: Dopaminergic D5 (Homo sapiens, UniProt P21918); test: CNS receptor binding assay, D5; settings: MAP4343 10 µM; [^3H] SCH 23390; Human recombinant (GH4 cells); read-out: % Inhibition of control specific binding
# Sequence of Dopaminergic D5 (P21918 whole entry): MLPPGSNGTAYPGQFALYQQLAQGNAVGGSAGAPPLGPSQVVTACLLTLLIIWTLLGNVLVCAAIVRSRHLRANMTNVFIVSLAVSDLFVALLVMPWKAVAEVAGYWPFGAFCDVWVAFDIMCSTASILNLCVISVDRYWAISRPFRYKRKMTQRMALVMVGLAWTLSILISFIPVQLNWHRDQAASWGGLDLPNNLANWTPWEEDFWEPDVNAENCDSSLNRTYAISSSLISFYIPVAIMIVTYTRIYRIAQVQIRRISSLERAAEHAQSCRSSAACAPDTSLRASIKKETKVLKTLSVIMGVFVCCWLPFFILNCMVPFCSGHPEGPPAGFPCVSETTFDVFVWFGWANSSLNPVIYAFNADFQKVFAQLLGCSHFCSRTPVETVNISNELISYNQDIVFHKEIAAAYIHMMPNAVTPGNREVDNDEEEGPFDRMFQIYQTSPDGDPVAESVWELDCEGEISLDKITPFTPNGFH
# Description: as §1, §2
# [10] = molecular target: Serotoninergic Transporter (Homo sapiens, UniProt P31645); test: CNS receptor binding assay, serotoninergic transporter; settings: MAP4343 10 µM; [^3H] imipramine; Human recombinant (CHO cells); read-out: % Inhibition of control specific binding
# Sequence of Serotoninergic Transporter (P31645 whole entry): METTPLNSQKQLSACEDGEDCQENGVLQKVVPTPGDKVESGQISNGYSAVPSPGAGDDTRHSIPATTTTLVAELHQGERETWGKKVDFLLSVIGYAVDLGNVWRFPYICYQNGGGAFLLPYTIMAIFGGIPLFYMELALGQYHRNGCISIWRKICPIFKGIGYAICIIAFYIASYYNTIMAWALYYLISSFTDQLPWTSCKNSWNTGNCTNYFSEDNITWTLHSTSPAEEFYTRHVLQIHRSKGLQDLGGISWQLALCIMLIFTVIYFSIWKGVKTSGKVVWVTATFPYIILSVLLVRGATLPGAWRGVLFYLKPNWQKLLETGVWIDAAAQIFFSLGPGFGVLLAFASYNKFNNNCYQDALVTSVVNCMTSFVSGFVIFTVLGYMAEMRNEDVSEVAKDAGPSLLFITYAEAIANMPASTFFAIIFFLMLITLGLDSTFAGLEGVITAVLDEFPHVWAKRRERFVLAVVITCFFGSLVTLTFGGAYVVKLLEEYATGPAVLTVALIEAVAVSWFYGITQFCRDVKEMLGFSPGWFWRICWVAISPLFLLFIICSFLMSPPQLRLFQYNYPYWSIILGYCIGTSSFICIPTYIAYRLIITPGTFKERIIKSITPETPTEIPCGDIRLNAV
# Description: as §1, §2
# [11] = molecular target: T2, Muscarinic (Cholinergic) M4 (Homo sapiens, UniProt P08173); test: CNS receptor binding assay, M4; settings: MAP4343 10 µM; [^3H] 4-DAMP; Human recombinant (CHO cells); read-out: % Inhibition of control specific binding
# T2 construct: expressed in transfected cells; host or cells: CHO cells
# T2 sequence (P08173 whole entry): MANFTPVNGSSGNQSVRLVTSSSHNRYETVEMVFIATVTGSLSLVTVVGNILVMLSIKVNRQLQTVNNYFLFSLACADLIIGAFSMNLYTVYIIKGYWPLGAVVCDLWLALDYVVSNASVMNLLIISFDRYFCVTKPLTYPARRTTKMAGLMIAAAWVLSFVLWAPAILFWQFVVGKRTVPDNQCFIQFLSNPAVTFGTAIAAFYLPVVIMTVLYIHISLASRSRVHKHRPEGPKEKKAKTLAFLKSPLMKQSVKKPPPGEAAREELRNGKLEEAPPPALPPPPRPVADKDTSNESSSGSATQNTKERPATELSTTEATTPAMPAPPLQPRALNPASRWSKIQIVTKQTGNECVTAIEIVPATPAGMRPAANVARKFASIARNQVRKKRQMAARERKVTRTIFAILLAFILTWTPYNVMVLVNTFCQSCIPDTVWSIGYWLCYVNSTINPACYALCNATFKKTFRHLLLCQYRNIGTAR
# Description: as §1, §2
# [12] = tested on: Wistar Kyoto (WKY) rats; test: Anxious-like behavior: activity in the central square of the open-field arena, WKY rats; type: in vivo, rat; settings: acute, MAP4343 10 mg/kg s.c., fluoxetine 10 mg/kg i.p., ketamine 30 mg/kg i.p.
# Description: as §3, §4
# The animals were individually placed in the open field arena (OFA) (70 x 100 x 70 cm), with a central square (35 x 50 cm), located in a 50 lux illuminated room and videotaped during 3 min using a computerized system (VideoTrack V2.5, ViewPoint, Lyon, France).
# OFA allows firstly the evaluation of total locomotor activity (LMA) thereby measuring the total distance travelled in the arena (in cm). Secondly, measurements of the activity in the center of the arena like (i) the number of entries in the center of arena and (ii) the total time spent in the center of arena (in sec) provide cues of anxiety-like behavior (Prut and Belzung, 2003). All these behavioral parameters were instantaneously measured automatically with the VideoTrack V2.5 software from the videos.
# [13] = molecular target: purified tubulin and MAP2 (Homo sapiens, UniProt P11137); test: Microtubule polymerization activity (optical density at 345 nm); type: biochemical; settings: increase in optical density at 345 nm, 37 °C, in the presence of GTP
# Sequence of purified tubulin and MAP2 (P11137 whole entry): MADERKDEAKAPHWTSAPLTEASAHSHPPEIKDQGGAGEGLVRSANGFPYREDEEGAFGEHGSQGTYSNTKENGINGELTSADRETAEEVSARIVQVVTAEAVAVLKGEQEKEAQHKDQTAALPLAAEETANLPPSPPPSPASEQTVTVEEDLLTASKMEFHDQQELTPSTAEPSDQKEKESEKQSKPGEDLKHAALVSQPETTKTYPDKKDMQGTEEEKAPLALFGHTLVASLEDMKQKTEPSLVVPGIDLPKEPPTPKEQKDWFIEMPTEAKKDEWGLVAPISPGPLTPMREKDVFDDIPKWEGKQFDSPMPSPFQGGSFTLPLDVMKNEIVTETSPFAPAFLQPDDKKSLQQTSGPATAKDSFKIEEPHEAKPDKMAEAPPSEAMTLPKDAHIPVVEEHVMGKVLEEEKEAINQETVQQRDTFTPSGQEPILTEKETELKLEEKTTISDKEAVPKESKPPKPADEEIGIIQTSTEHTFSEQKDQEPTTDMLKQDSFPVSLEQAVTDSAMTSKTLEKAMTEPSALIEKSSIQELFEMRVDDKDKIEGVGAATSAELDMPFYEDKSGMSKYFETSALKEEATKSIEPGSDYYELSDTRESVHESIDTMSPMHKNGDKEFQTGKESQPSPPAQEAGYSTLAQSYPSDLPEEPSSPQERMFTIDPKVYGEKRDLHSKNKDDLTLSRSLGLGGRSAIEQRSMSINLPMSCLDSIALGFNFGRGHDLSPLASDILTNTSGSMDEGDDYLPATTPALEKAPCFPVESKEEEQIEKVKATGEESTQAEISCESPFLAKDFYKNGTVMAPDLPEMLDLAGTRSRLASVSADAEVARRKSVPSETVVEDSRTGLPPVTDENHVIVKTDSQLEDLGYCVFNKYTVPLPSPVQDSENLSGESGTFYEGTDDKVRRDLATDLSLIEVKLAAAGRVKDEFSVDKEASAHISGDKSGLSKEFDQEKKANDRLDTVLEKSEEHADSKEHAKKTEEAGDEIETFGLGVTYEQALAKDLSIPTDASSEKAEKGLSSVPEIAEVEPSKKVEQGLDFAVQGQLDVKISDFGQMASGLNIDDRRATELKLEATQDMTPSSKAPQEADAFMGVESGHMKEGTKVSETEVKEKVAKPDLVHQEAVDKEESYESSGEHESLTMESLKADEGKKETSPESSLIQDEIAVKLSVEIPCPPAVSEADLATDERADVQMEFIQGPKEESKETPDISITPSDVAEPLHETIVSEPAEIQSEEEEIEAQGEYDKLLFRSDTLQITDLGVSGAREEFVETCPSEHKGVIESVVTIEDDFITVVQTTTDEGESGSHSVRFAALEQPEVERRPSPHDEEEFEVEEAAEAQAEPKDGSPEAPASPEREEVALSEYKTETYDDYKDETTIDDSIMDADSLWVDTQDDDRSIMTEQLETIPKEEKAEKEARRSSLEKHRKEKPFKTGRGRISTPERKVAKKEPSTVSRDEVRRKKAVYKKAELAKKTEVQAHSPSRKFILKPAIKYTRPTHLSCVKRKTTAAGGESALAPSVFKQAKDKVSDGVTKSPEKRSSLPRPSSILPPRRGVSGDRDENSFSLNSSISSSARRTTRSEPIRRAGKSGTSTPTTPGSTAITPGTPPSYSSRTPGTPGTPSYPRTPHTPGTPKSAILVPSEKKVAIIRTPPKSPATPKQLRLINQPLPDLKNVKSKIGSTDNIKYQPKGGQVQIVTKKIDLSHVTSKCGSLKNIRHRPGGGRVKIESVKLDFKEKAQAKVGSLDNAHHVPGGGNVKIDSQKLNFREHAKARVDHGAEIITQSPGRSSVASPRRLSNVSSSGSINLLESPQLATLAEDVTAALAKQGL
# Description: Activity is measured by the increase in optical density at 345 nm of a mixture of purified tubulin and MAP2, incubated at 37 °C in the presence of GTP.
compound,measurement,setting,value
"CO[C@H]1CC[C@@]2(C)C(=CC[C@H]3[C@@H]4CC[C@H](C(C)=O)[C@@]4(C)CC[C@@H]32)C1 (stereo in doubt) [MAP4343, 3β-methoxy-pregna-5-ene-20-one]",in vitro affinity for tested receptors,[1],no significant affinity for any tested receptor
same,inhibition at 10 µM,[2],0%
same,"open-arm (OA) index, change when compared to WKY receiving vehicle alone",[3],165%
same,inhibition at 10 µM,[4],3%
same,inhibition at 10 µM,[5],10%
same,inhibition at 10 µM,[6],8%
same,inhibition at 10 µM,[7],-5%
same,inhibition at 10 µM,[8],6%
same,inhibition at 10 µM,[9],-7%
same,inhibition at 10 µM,[10],3%
same,inhibition at 10 µM,[11],20%
same,"number of entries in the central square of OFA, change as compared to WKY receiving only vehicle",[12]; Fig. 5B,+289%
same,"time spent in the center of open-field, change as compared to WKY receiving vehicle",[12]; Fig. 5C,did not modify
same,Activity,[13],100% of PREG
